The target of the assay is Golgi-associated PDZ and coiled-coil motif-containing protein (Homo sapiens) (UniProt Q9HD26). In words: disruptors of CAL PDZ reporter peptide binding – biochemical, fluorescence polarization, untagged CAL PDZ, dry powder, dose response (AID 602255). To be noted: CAL PDZ / TMR peptide fluorescence polarization, 1 h; for activity change, negative = inhibition: at 35 µM (top of the series). On the technique in general: In fluorescence polarisation assays a small probe gives low polarisation when free and higher when bound to something large.

The term AC50 denotes the concentration giving half of the maximal activity seen.

The structures appear in SMILES notation. The source made the active and inactive calls.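 The calls were made as follows: active = falling polarization with an AC50 at most ten times the sample's highest valid dose; inconclusive = flat curve at 30 to 70% inhibition, or poor fit; inactive = rising signal, flat weak curves, or AC50 past limit.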

In the case of `O=C(O)CSc1cc(NS(=O)(=O)c2ccc(Br)cc2)c2ccccc2c1O`, the AC50 was > 35 µM (inactive).
With `O=S(=O)(Nc1cc(Sc2ccccc2)c(O)c2ccccc12)c1ccc(Cl)cc1`, the “activity change, negative = inhibition” value was “inactive”.
As for `O=S(=O)(Nc1ccc(O)c2ccccc12)c1ccccc1`, the “activity change, negative = inhibition” value is “inactive”.
`COc1ccc(S(=O)(=O)Nc2cc(SCC(=O)O)c(O)c3ccccc23)cc1`: the “activity change, negative = inhibition” value was “inactive”.

The record behind these values is PubChem BioAssay AID602255 (Broad Institute, 2012).
